Reference: patent US11440935B2, “3″,5″-dimethoxybenzoyl-3′-amino-3′-deoxy adenosine-5′-triphosphates and pharmaceutical uses thereof” (Danmir Therapeutics, LLC, priority 2018, dated 2022)
“And” between values parts separate entries of the source, which are not always exact repeats. Identical values can stand only once.

How the values were obtained:
conscious guinea-pigs [1] = test: Aerosolized ATP-induced bronchoconstriction in conscious guinea-pigs (sRaw); format: in vivo, guinea-pig; settings: n=6
Procedure: (§1) This study was performed in 6 guinea-pigs. The housing room was constantly ventilated, and the temperature kept at ˜23° C. After quarantine, the animals were individually placed in a whole-body, unrestrained, plethysmograph chamber (model PLY3215, Buxco Electronics Inc., Troy, N.Y.) for ˜40 min once a day for two continuous days before the cough test. All GPs were weighed before the cough study.
(§2) ATP was purchased from Sigma-Aldrich (Cat #A2383-10G). Solutions of ATP used for aerosol challenge were freshly made just prior to use by dissolving the powder in 0.9% saline (NaCl) solution. Solutions of DT-0111 used for aerosol administration were freshly made by dissolving the powder in 0.9% saline (NaCl) solution.
A plethysmograph chamber was continuously flushed with normoxic (21% O2 and 79% N2) room air at 2 L/min. The same amount of air was drawn through the chamber base outlets using a Buxco bias flow regulator to keep the chamber bias flow balanced. ATP or DT solution was aerosolized by using a vibrating mesh nebulizer (Ireland Ltd., Galway Ireland, AG-AL1100). The output rate of delivered aerosol was around 0.5 ml/min with droplet size (volume median diameter) at 2.5-4.0 μm (manufacture's indications). […]
The results are expressed as percent change in airway pressure (sRaw). n=6; * p<0.05, vs. ATP 0.0 mg/ml; †p<0.05, DT-0111 vs. Ctrl at the same ATP dose.

conscious guinea-pigs [2] = test: Aerosolized ATP-induced cough in conscious free moving guinea-pigs; format: in vivo, guinea-pig
Procedure: as §1, §2
A plethysmograph chamber was continuously flushed with normoxic (21% O2 and 79% N2) room air at 2 L/min. The same amount of air was drawn through the chamber base outlets using a Buxco bias flow regulator to keep the chamber bias flow balanced. ATP or DT solution was aerosolized by using a vibrating mesh nebulizer (Ireland Ltd., Galway Ireland, AG-AL1100). The output rate of delivered aerosol was around 0.5 ml/min with droplet size (volume median diameter) at 2.5-4.0 μm (manufacture's indications). The aerosol was mixed with airflow and directly delivered into the plethysmograph chamber. The latter was placed in a standard chemical fume hood (size: 3×6 ft) installed in a standard laboratory.
A guinea-pig was placed in the chamber again after adaptation. Following stabilization, #1 guinea-pig was exposed to aerosolized ATP at 6 mg/ml, 24 mg/ml, and then 48 mg/ml for 5 min with an interval of 30 min. The remaining animals (#2-#6 guinea-pigs) were exposed to aerosolized ATP at 48 mg/ml for 5 min. Approximately 140 min later, the same dose of ATP was repeated immediately after DT-0111 aerosol inhalation (12 mg/ml for 5 min). […] The cough sound and behavioral activities were continuously monitored and recorded before (for 3 min), during 5 min aerosol delivery, and 20 min after cessation of the delivery.
Setup of the cough recording system. The top of the plethysmograph chamber was connected with a plastic tube that was attached by the nebulizer. Normoxic air driven by the nebulizer controller was flowed into the chamber and sucked out by the bias flow regulator with the in and out flow volume balanced (2.0 L/min). To detect cough, a microphone system was mounted in the roof of the chamber to record sound; a video camera was placed outside of the chamber to monitor animal body posture; and a Buxco pneumotachograph (differential pressure transducer) attached to the chamber to record airflow. All signals generated by video camera, microphone, and pressure transducer were amplified and recorded continuously by PowerLab/8 sp (model ML 785; ADInstruments Inc., Colorado Springs, Colo.) and a computer with the LabChart Pro 7 software.
Cough count. A typical cough response, as reported before (Girard et al., Eur Respir J, 1995; Blasko et al., American Journal of Advanced Drug Delivery. 5:131-138, 2017; Corboz et al., Journal of Pharmacology and Experimental Therapeutics. 363: 348-357, 2017), was defined by the simultaneous appearance of: 1) a transient and great change in the airflow (a rapid inspiration followed by rapid expiration); 2) a typical cough sound with the peak power density at 1-2 kHz in frequency spectrum (sneeze at 3.5-6.5 kHz); and 3) animal body (head) posture and movement.

P2Y6 = molecular target: T1, P2Y6 (Homo sapiens, UniProt Q15077); test: PDSP functional assay in vitro (PRESTO-Tango), agonist/antagonist; format: cell-based
T1 construct: expressed in transfected cells
T1 sequence (Q15077 whole entry): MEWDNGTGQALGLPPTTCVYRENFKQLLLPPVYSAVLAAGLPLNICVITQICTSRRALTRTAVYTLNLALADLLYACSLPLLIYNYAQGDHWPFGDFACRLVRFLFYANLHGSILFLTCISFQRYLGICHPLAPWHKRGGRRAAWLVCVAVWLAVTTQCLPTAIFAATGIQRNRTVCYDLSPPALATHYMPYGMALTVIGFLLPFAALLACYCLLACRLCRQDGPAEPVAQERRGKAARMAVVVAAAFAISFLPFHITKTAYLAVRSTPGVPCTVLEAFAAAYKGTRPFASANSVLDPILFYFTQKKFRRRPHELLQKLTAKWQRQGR
Procedure: (§3) The assays were carried out utilizing the method set forth in Kroeze et al., PRESTO-Tango as an open-source resource for interrogation of the druggable human GPCRome, Nat. Struct. Mol. Biol. 2015 May; 22(5):362-9.

P2Y14 = molecular target: T2, P2Y14 (Homo sapiens, UniProt Q15391); test: as above; format: cell-based
T2 construct: expressed in transfected cells
T2 sequence (Q15391 1-338): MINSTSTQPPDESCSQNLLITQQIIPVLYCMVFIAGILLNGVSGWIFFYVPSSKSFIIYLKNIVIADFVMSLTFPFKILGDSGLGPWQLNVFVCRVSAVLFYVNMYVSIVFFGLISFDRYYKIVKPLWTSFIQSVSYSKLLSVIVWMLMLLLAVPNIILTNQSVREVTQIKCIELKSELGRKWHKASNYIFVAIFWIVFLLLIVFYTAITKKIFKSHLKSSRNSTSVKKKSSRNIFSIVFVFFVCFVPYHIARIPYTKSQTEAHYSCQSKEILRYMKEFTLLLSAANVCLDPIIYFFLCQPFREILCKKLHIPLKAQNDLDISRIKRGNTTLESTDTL
Procedure: as §3

P2Y1 = molecular target: T3, P2Y1 (Homo sapiens, UniProt P47900); test: as above; format: cell-based
T3 construct: expressed in transfected cells
T3 sequence (P47900 whole entry): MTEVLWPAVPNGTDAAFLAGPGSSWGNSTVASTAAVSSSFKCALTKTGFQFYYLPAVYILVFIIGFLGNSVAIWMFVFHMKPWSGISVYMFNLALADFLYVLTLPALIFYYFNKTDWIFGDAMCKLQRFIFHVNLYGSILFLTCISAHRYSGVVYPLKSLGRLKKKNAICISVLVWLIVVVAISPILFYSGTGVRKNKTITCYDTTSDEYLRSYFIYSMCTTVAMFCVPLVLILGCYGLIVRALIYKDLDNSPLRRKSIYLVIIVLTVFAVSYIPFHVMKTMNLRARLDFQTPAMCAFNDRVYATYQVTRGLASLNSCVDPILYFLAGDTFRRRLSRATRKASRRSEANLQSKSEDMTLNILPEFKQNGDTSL
Procedure: as §3

P2Y2 = molecular target: T4, P2Y2 (Homo sapiens, UniProt P41231); test: as above; format: cell-based
T4 construct: expressed in transfected cells
T4 sequence (P41231 whole entry): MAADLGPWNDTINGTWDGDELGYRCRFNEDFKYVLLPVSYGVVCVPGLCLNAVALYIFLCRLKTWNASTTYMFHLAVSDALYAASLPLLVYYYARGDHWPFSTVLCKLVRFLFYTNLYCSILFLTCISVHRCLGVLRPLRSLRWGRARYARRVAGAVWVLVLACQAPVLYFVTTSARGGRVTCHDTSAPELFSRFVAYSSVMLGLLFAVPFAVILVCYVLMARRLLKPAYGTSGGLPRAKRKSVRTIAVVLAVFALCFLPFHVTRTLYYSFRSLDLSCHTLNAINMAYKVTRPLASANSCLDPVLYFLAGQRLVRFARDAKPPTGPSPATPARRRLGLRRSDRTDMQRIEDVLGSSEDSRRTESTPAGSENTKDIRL
Procedure: as §3

P2Y12 = molecular target: T5, P2Y12 (Homo sapiens, UniProt Q9H244); test: as above; format: cell-based
T5 construct: expressed in transfected cells
T5 sequence (Q9H244 whole entry): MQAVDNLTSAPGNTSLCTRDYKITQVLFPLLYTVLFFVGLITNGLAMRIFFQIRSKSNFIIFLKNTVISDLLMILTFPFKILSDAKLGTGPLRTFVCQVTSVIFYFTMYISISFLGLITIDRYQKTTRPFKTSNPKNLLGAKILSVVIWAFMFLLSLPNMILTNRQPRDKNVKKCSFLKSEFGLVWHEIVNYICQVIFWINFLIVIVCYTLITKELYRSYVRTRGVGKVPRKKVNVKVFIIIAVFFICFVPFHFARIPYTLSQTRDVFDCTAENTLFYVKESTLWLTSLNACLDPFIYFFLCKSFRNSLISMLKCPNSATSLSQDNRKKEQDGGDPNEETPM
Procedure: as §3

P2Y13 = molecular target: T6, P2Y13 (Homo sapiens, UniProt Q9BPV8); test: as above; format: cell-based
T6 construct: expressed in transfected cells
T6 sequence (Q9BPV8 1-354): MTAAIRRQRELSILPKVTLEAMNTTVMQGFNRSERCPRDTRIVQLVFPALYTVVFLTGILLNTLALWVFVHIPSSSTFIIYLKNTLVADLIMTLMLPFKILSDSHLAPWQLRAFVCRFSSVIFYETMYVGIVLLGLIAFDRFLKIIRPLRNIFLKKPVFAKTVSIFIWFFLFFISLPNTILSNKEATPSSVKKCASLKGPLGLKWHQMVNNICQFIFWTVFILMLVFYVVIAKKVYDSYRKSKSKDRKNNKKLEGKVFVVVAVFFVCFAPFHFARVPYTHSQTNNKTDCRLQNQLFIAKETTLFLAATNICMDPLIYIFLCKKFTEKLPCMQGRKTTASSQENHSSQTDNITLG
Procedure: as §3

P2Y4 = molecular target: T7, P2Y4 (Homo sapiens, UniProt P51582); test: as above; format: cell-based
T7 construct: expressed in transfected cells
T7 sequence (P51582 whole entry): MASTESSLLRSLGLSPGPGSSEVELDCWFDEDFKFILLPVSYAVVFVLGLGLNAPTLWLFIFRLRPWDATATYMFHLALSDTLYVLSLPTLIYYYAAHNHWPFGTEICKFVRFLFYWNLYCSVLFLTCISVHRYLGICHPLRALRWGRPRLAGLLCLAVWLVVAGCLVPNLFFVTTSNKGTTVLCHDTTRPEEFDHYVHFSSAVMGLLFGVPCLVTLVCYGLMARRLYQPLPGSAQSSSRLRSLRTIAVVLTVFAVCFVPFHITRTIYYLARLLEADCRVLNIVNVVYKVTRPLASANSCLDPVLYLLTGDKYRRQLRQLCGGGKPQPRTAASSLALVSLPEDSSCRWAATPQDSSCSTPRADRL
Procedure: as §3

[3] = DT (12 mg/ml, 5 min) + ATP (48 mg/ml), per guinea-pig
[4] = aerosolized DT-0111 12 mg/ml, n=5

Sodium 3′-N-(3,5-dimethoxybenzoyl)-3′-deoxy-β-D-adenosine 5′-triphosphate [DT-0111]
effect on aerosolized ATP-induced bronchoconstriction (conscious guinea-pigs [1]): Suppresses | Bout Cough T1# (conscious guinea-pigs [2]; [3]): 0 | Bout Cough T2# (conscious guinea-pigs [2]; [3]): 0 | Individual Cough (conscious guinea-pigs [2]; DT (12 mg/ml, 5 min) + ATP (48 mg/ml), per guinea-pig, listed as DT): 0 (2×) and 1 (2×) and 7 | effect on ATP-induced bout of coughs (conscious guinea-pigs [2]; [4]): blocked the bout of coughs in all tested animals | effect on ATP-induced individual coughs (conscious guinea-pigs [2]; [4]): little effect on individual coughs | cough evoked by the compound per se (conscious guinea-pigs [2]; aerosolized DT-0111 alone): did not evoke any cough | agonist or antagonist action at receptor (P2Y6): does not act as an agonist or antagonist | agonist or antagonist action at receptor (P2Y14): does not act as an agonist or antagonist | agonist or antagonist action at receptor (P2Y1): does not act as an agonist or antagonist | agonist or antagonist action at receptor (P2Y2): does not act as an agonist or antagonist | agonist or antagonist action at receptor (P2Y12): does not act as an agonist or antagonist | agonist or antagonist action at receptor (P2Y13): does not act as an agonist or antagonist | agonist or antagonist action at receptor (P2Y4): does not act as an agonist or antagonist
